The values below are quoted from earlier work in patent publication US7307164B2, “β-amino heterocyclic dipeptidyl peptidase inhibitors for the treatment or prevention of diabetes” (Merck & Co., Inc., priority 2002, dated 2007).

Each structure is given as a SMILES string.

One series has as its system cardiac allograft. Particulars: rats; survival from day 7 to day 14.
The next series concerns hematopoiesis. Particulars: mouse, cyclophosphamide-induced neutropenia.
A further series concerns the target T1, DP-IV (Homo sapiens, UniProt P27487).
T1 construct: GRF is rapidly degraded in plasma to GRF[3-44]

T1 sequence (P27487 whole entry): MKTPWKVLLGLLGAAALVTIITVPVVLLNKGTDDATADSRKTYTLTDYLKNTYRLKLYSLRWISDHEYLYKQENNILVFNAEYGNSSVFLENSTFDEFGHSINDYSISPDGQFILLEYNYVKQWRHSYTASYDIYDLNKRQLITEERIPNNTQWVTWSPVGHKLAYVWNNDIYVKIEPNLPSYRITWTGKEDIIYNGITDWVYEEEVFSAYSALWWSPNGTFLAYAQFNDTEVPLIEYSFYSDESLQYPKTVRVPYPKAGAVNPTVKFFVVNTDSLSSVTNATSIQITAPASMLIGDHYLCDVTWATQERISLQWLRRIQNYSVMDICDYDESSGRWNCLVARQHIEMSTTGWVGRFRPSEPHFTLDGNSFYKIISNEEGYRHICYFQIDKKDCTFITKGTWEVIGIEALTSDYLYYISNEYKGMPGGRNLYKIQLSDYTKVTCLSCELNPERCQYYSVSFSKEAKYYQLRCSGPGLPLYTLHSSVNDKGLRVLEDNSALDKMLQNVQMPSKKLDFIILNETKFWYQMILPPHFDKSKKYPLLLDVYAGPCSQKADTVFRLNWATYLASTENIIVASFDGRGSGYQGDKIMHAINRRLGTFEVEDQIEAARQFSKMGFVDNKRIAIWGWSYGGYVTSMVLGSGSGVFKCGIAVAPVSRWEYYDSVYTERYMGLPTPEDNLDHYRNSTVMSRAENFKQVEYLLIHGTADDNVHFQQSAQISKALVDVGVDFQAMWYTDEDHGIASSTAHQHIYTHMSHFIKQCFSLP

For `CC(C)N1CCC(c2ccccc2)(c2ccccc2)CC1` [Prodipine, Pro-Pro-diphenyl-phosphonate], the cardiac allograft survival entry in the series on cardiac allograft is recorded as “double cardiac allograft survival”. With `CC(C)[C@H](N)C(=O)N1CCC[C@H]1B(O)O` [Val-Boro-Pro], the hematopoiesis entry in the series with hematopoiesis is “stimulated hematopoiesis”. Turning to `CC[C@H](C)[C@H](N)C(=O)N1CCC[C@H]1C(=O)N[C@H](C(=O)O)[C@@H](C)CC` [diprotin A], the “degradation of GRF in plasma to GRF[3-44]” value on DP-IV is listed as “prevented”.
